Results reported in PubChem BioAssay AID192 (DTP/NCI, 2004).
“And” between values parts separate entries of the source, which are not always exact repeats. Identical values can stand only once. Inconclusive results and toxic doses are left out.

Tested on: BDF1 mice, B16 melanoma ip, median survival T/C
Assay: NCI In Vivo Anticancer Drug Screen. Data for tumor model B16 Melanoma (intraperitoneal) in B6D2F1 (BDF1) mice
Settings: endpoint: median survival time, higher = longer survival
Procedure, shortened: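 Transplantable tumor model; survival or tumor size measured; reported as T/C, treated over vehicle control.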

[1] = dose: 6.25 mg/kg/injection, schedule: Q01DX009 (ip), vehicle: saline with Tween-80
[2] = dose: 12.5 mg/kg/injection, schedule: Q01DX009 (ip), vehicle: saline with Tween-80
[3] = dose: 25.0 mg/kg/injection, schedule: Q01DX009 (ip), vehicle: saline with Tween-80
[4] = dose: 50.0 mg/kg/injection, schedule: Q01DX009 (ip), vehicle: saline with Tween-80
[5] = dose: 100.0 mg/kg/injection, schedule: Q01DX009 (ip), vehicle: saline with Tween-80
[6] = dose: 100.0 mg/kg/injection, schedule: Q01DX009 (ip), vehicle: Klucel (hydroxypropylcellulose) (HPC)
[7] = dose: 200.0 mg/kg/injection, schedule: Q01DX009 (ip), vehicle: Klucel (hydroxypropylcellulose) (HPC)
[8] = dose: 400.0 mg/kg/injection, schedule: Q01DX009 (ip), vehicle: Klucel (hydroxypropylcellulose) (HPC)
[9] = dose: 6.25 mg/kg/injection, schedule: Q01DX009 (ip), vehicle: saline
[10] = dose: 12.5 mg/kg/injection, schedule: Q01DX009 (ip), vehicle: saline
[11] = dose: 25.0 mg/kg/injection, schedule: Q01DX009 (ip), vehicle: saline
[12] = dose: 50.0 mg/kg/injection, schedule: Q01DX009 (ip), vehicle: Klucel (hydroxypropylcellulose) (HPC)

Structure (SMILES): CCCCOC(=O)/C=C(\Br)C(=O)OCCCC
- T/C [1]: 99 % of control and 100 % of control
- T/C [2]: 98 % of control and 104 % of control
- T/C [3]: 86 % of control and 98 % of control
- T/C [4]: 91 % of control
- T/C [5]: 90 % of control

Structure (SMILES): O=[N+]([O-])c1cc([N+](=O)[O-])c(/C=C/c2ccccc2)c([N+](=O)[O-])c1/C=C/c1ccccc1
- T/C [6]: 105 % of control
- T/C (dose: 100.0 mg/kg/injection, schedule: Q04DX003 (ip), vehicle: Klucel (hydroxypropylcellulose) (HPC)): 102 % of control
- T/C [7]: 107 % of control
- T/C (dose: 200.0 mg/kg/injection, schedule: Q04DX003 (ip), vehicle: Klucel (hydroxypropylcellulose) (HPC)): 94 % of control
- T/C [8]: 94 % of control
- T/C (dose: 400.0 mg/kg/injection, schedule: Q04DX003 (ip), vehicle: Klucel (hydroxypropylcellulose) (HPC)): 89 % of control

Structure (SMILES): Cc1cc(SCC(=O)c2ccc(Br)cc2)cc(C)[o+]1
- T/C [9]: 111 % of control and 122 % of control
- T/C [10]: 112 % of control and 119 % of control
- T/C [11]: 98 % of control and 118 % of control
- T/C (dose: 50.0 mg/kg/injection, schedule: Q01DX009 (ip), vehicle: saline): 106 % of control
- T/C (dose: 100.0 mg/kg/injection, schedule: Q01DX009 (ip), vehicle: saline): 95 % of control

Structure (SMILES): Cc1ccc(NC(=O)COc2ccc(Cl)cc2)c(C)c1
- T/C (dose: 3.13 mg/kg/injection, schedule: Q01DX009 (ip), vehicle: saline with Tween-80): 119 % of control
- T/C [1]: 107 % of control
- T/C [2]: 97 % of control
- T/C [3]: 95 % of control
- T/C [4]: 91 % of control

Structure (SMILES): Cc1cc([NH-])c([NH-])cc1C.[Cl][Pt+2][Cl]
- T/C (dose: 1.25 mg/kg/injection, schedule: Q01DX009 (ip), vehicle: saline with Tween-80): 108 % of control
- T/C (dose: 2.5 mg/kg/injection, schedule: Q01DX009 (ip), vehicle: saline with Tween-80): 123 % of control
- T/C (dose: 10.0 mg/kg/injection, schedule: Q01DX009 (ip), vehicle: saline with Tween-80): 161 % of control

Structure (SMILES): O=[N+]([O-])c1cccc(N=P(c2ccccc2)(c2ccccc2)c2ccccc2)c1
- T/C [6]: 97 % of control
- T/C [7]: 101 % of control
- T/C [8]: 94 % of control

Structure (SMILES): CCC[CH2][Sn]1([CH2]CCC)[S]CC[N]1S(=O)(=O)c1ccc(C)cc1
- T/C (dose: 6.0 mg/kg/injection, schedule: Q01DX009 (ip), vehicle: saline with Tween-80): 95 % of control
- T/C [2]: 108 % of control

Structure (SMILES): CC1(C)CCSC(/C=C/c2ccccc2)=N1
- T/C [12]: 96 % of control
- T/C [6]: 94 % of control
- T/C [7]: 91 % of control

Structure (SMILES): O=C(Nc1ccc(NC2=NCCN2)cc1)c1cccc(C(=O)Nc2ccc(NC3=NCCN3)cc2)c1
- T/C (dose: 7.5 mg/kg/injection, schedule: Q01DX009 (ip), vehicle: saline with Tween-80): 105 % of control
- T/C (dose: 7.5 mg/kg/injection, schedule: Q04DX003 (ip), vehicle: saline with Tween-80): 100 % of control
- T/C (dose: 15.0 mg/kg/injection, schedule: Q01DX009 (ip), vehicle: saline with Tween-80): 92 % of control
- T/C (dose: 15.0 mg/kg/injection, schedule: Q04DX003 (ip), vehicle: saline with Tween-80): 88 % of control
- T/C (dose: 30.0 mg/kg/injection, schedule: Q04DX003 (ip), vehicle: saline with Tween-80): 100 % of control

Structure (SMILES): CSc1ccc(NC(=O)CCl)cc1
- T/C [2]: 95 % of control
- T/C [3]: 105 % of control
- T/C [4]: 96 % of control

Structure (SMILES): Cc1cc(C)c(OCC(O)CO)c(C)c1 (stereo unspecified)
- T/C [5]: 104 % of control
- T/C (dose: 200.0 mg/kg/injection, schedule: Q01DX009 (ip), vehicle: saline with Tween-80): 93 % of control

Structure (SMILES): CCCCCCCCC1CCC(N)CC1 (stereo unspecified)
- T/C [12]: 93 % of control
- T/C [6]: 86 % of control

Structure (SMILES): CCCCCCCCP(=O)(N1CC1C)N1CC1C (stereo unspecified)
- T/C (dose: 3.12 mg/kg/injection, schedule: Q01DX009 (ip), vehicle: saline): 101 % of control
- T/C [9]: 102 % of control
- T/C [10]: 97 % of control
- T/C [11]: 102 % of control

Structure (SMILES): CCCCCCCCCCCC[N+](C)(C)Cc1ccccc1
- T/C (dose: 0.25 mg/kg/injection, schedule: Q01DX009 (ip), vehicle: saline): 100 % of control and 110 % of control
- T/C (dose: 0.25 mg/kg/injection, schedule: Q04DX003 (ip), vehicle: saline): 103 % of control
- T/C (dose: 0.5 mg/kg/injection, schedule: Q01DX009 (ip), vehicle: saline): 97 % of control and 105 % of control and 107 % of control
- T/C (dose: 0.5 mg/kg/injection, schedule: Q04DX003 (ip), vehicle: saline): 95 % of control and 100 % of control
- T/C (dose: 1.0 mg/kg/injection, schedule: Q01DX009 (ip), vehicle: saline): 92 % of control and 104 % of control
- T/C (dose: 1.0 mg/kg/injection, schedule: Q04DX003 (ip), vehicle: saline): 96 % of control
- T/C (dose: 2.0 mg/kg/injection, schedule: Q01DX009 (ip), vehicle: saline with Tween-80): 150 % of control
- T/C (dose: 2.0 mg/kg/injection, schedule: Q01DX009 (ip), vehicle: saline): 88 % of control and 106 % of control
- T/C (dose: 2.0 mg/kg/injection, schedule: Q04DX003 (ip), vehicle: saline with Tween-80): 158 % of control
- T/C (dose: 2.0 mg/kg/injection, schedule: Q04DX003 (ip), vehicle: saline): 88 % of control
- T/C (dose: 4.0 mg/kg/injection, schedule: Q01DX009 (ip), vehicle: saline): 94 % of control and 100 % of control
- T/C (dose: 4.0 mg/kg/injection, schedule: Q04DX003 (ip), vehicle: saline with Tween-80): 177 % of control
- T/C (dose: 4.0 mg/kg/injection, schedule: Q04DX003 (ip), vehicle: saline): 93 % of control
